For orientation: Km means the substrate concentration at which the rate is half of its maximum.

Where a name gives a salt, the structure may show the parent alone. Square brackets hold non-standard residues; d marks the D form. Peptide text beside a SMILES is read from it. * marks the point of attachment. ξ: configuration not given here. NHPhenethyl = c1ccc(CCN*)cc1; ξN = NC(=O)CC(N)C(=O)O

Results on two molecules are retold here after US5439812A, “Antibodies catalyzing deamidation of proteins” (The Pennsylvania Research Corporation, priority 1992, dated 1995).

Assay [1] relates to monoclonal catalytic antibody 2E4 raised to the RG2 hapten-KLH conjugate. Briefly: deamidation of the Asn-Gly substrate catalysed by antibody 2E4 (glutamate dehydrogenase coupled ammonia assay). The format is biochemical, mouse. An excerpt: (§1) The resulting hybridomas are subjected to a preliminary screening for binding to the hapten using standard methods specifically as described in U.S. Pat. No. 5,079,152 to Benkovic et al, noted above. […] This assay is chosen to specifically screen for those antibodies which catalyze the deamidation reaction and assays by the determination of ammonia. The procedure is a modification of known procedures which use glutamate dehydrogenase to detect ammonia. (See Foncesca-Wollheim, F. Clin. Chem., […], 1483-1487 (1990), and von Anken, H. D., Schiphorst, M. E., Clinica Chimica Acta, 56, 151-157 (1974)).
The deamidation to the cyclic imide intermediate is assayed by a spectrophotometric procedure coupling the antibody-catalyzed reaction to the enzyme glutamate dehydrogenase. Glutamate dehydrogenase utilizes the ammonia produced from the antibody-catalyzed deamidation reaction to convert alpha-ketoglutarate into glutamic acid, oxidizing nicotimamide dinucleotide phosphate in the process (NADPH is oxidized to NADP). The glutamate dehydrogenase reaction is monitored spectrophotometrically.
Thirty antibodies are picked for assay for catalytic activity. The antibodies are delivered in phosphate buffered saline solutions. These are then dialyzed into bicine buffer (pH 9.0, 0.10M) and 100 uL of the dialyzed solution was then added to a solution of bicine (166 uL, pH 9.0, 0.10M). To this is added 16.5 uL of a solution containing 400 uM NADPH, α-ketoglutarate, and adenosine diphosphate. This is mixed thoroughly and then 16.5 uL of analytical grade glutamate dehydrogenase (Boehringer Mannheim) is added and the solution is again mixed thoroughly. The reaction is initiated by addition of the substrate which is stored in a DMSO solution such that the total concentration of DMSO was 5%.
The solution is then transfered to a small cuvette and the decrease in absorbance at 340 nanometers is followed over a period of several hours. Control reactions are performed under identical conditions without the addition of antibody to the reaction mixture (bicine buffer was added in place of the antibody to maintain volume). The antibody catalyzed rate is determined by subtracting the overall rate (antibody-catalyzed and spontaneous rates) from the spontaneous rate determined from the control reaction.
This is not a Vmx since the substrate was not at total saturation of the antibody. The actual rate enhancement is probably greater. […]

The test system of assay [2] is monoclonal catalytic antibody 24C3 raised to the RG2 hapten-KLH conjugate. Kind of assay: deamidation of the Asn-Gly substrate catalysed by antibody 24C3 (glutamate dehydrogenase coupled ammonia assay). The format is biochemical, mouse.
From the text: as §1
The deamidation to the cyclic imide intermediate is assayed by a spectrophotometric procedure coupling the antibody-catalyzed reaction to the enzyme glutamate dehydrogenase. […] The glutamate dehydrogenase reaction is monitored spectrophotometrically. […]
The solution is then transfered to a small cuvette and the decrease in absorbance at 340 nanometers is followed over a period of several hours. […] The antibody catalyzed rate is determined by subtracting the overall rate (antibody-catalyzed and spontaneous rates) from the spontaneous rate determined from the control reaction. […]

With `CC(=O)NC(CC(N)=O)C(=O)NCC(=O)NCCc1ccccc1` (stereo not drawn) [substrate, phenyl ethyl derivative of the asparaginyl-glycyl dipeptide] (Ac-[ξN]-Gly-NHPhenethyl), the kcat was 1.5±0.3×10^-4 s^-1 in assay [1] (2E4 investigated in more detail); 0.416 h⁻¹ in assay [1] (25° C., bicine pH 9.0, substrate 451 uM, antibody 27.4 uM, not a Vmax, substrate not at total saturation); 0.352 in assay [2] (not a true Vmax). In assay [1] (2E4 investigated in more detail, read-out: binding affinity for the substrate (Km)), the Michaelis-Menten constant (Km) came to 220 ± 10 µM.

Regarding `O=C(O)CCCC(=O)NC1CP(=O)(O)C(CC(=O)NCCc2ccccc2)C1O` (stereo not drawn) [phospholane hapten, N-(Z-Phenylethyl)-[1'-hydroxyphosphol-3'-hydroxy-4'-(5-hydroxy-5-oxo-pentanoyl)amino-1'-oxo-2'-yl]acetamide disodium salt], the “inhibition of antibody-catalysed deamidation by hapten” value in assay [1] is “stoichiometrically inhibited”; in assay [2], “inhibition of this reaction with hapten”.
